Laboratory results as given in the NIST ThermoML archive (doi:10.1021/acs.jced.7b01006).

Test: xn = mol fraction of the nth substance listed
Details: 100 kPa, Liquid; for electrical conductivity: Alternating current cell with electrodes; for viscosity: Falling or rolling sphere viscometry; for mass density: Vibrating tube method

CCC[n+]1ccn(C)c1C.N#C[S-] [1,2-dimethyl-3-propylimidazolium thiocyanate] + CC#N
Details | electrical conductivity, 288.15 K [S/m] | electrical conductivity, 293.15 K [S/m] | mass density, 288.15 K [kg/m3] | mass density, 293.15 K [kg/m3] | viscosity, 288.15 K [mPa·s] | viscosity, 293.15 K [mPa·s]
x1 = 0.1002 | 5.17 | 5.5 | 884.48 | 880.24 | 7.694 | 5.454
x1 = 0.2002 | 4.31 | 4.67 | 948.75 | 945.16 | 16.21 | 11.9
x1 = 0.2998 | 3.45 | 3.84 | 996.05 | 992.52 | 29.71 | 22.12
x1 = 0.4001 | 2.35 | 2.64 | 1028.84 | 1025.75 | 51.08 | 37.64
x1 = 0.4997 | 1.21 | 1.46 | 1052.44 | 1049.28 | 81.84 | 58.62
x1 = 0.5998 | 0.95 | 1.16 | 1067.26 | 1064.44 | 120.8 | 85.72
x1 = 0.7002 | 0.685 | 0.883 | 1077.84 | 1075.11 | 166.5 | 117.1
x1 = 0.7999 | 0.496 | 0.639 | 1085.72 | 1083.11 | 215 | 150.3
x1 = 0.8999 | 0.378 | 0.478 | 1093.78 | 1090.97 | 264.8 | 183.5
x1 = 1 | 0.255 | 0.361 | 1099.81 | 1096.75 | 316.5 | 215.8
